In patent US9376420B2 (YUHAN CORPORATION, priority 2012, dated 2016):

Molecular target: T1, human LXRβ (Homo sapiens, UniProt P55055)
T1 construct: expressed in transfected cells; host or cells: HEK293 cells (ATCC CRL-1573), transient transfection with pFA-hLXRβ/GAL4 and pUAS
T1 sequence (P55055 222-460 limits assumed): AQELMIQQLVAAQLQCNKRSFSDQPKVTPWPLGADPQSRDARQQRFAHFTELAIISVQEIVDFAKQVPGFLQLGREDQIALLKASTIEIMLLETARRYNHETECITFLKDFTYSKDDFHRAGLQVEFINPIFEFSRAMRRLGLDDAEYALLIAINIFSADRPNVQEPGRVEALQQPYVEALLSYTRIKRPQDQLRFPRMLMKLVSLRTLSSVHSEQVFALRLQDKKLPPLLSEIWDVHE
Experiment: Assay for Transcriptional Activity of LXRβ (GAL4-hLXRβ LBD luciferase reporter, transient transfection)
Format: cell-based
Conditions: HEK293 cells transfected with pFA-hLXRβ/GAL4 and pUAS, 24 hours; for Emax: fold value in comparison with the control (DMSO-treated group); for EC50: increase of transcriptional activity of LXRβ, average of three independent tests
Method in brief: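 HEK293 cells transiently co-transfected with GAL4-hLXRβ LBD and 5×GAL4-UAS luciferase reporter, treated 24 h at 37 °C with compounds over 9 points (0.01–50 μM, half-log). Luminescence read after lysis; EC50 from four-parameter fit, mean of three independent tests, with a known LXR agonist as positive control.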

Structure (SMILES)	Emax [fold]	EC50 [nM]
CS(=O)(=O)c1cc(F)c(-c2ccc(C3CC(C(O)(C(F)(F)F)C(F)(F)F)=NN3c3ccc(F)cc3F)cc2)c(F)c1 (centres unmarked) [Example 389, 1-(2,4-difluoro-phenyl)-5-(2′,6′-difluoro-4′-methanesulfonyl-biphenyl-4-yl)-3-[di-(trifluoromethyl)-hydroxy-methyl]-4,5-dihydro-1H-pyrazole]	29	503
CS(=O)(=O)c1ccc(-c2ccc(C3CC(C(O)(C(F)(F)F)C(F)(F)F)=NN3c3ccc(F)cc3F)cc2)cc1C#N (centres unmarked) [Example 390, 1-(2,4-difluoro-phenyl)-5-(3′-cyano-4′-methanesulfonyl-biphenyl-4-yl)-3-[di-(trifluoromethyl)-hydroxy-methyl]-4,5-dihydro-1H-pyrazole]	55	318
CS(=O)(=O)c1ccc(-c2ccc(C3CC(C(O)(C(F)(F)F)C(F)(F)F)=NN3c3ccc(F)cc3F)cc2)nc1 (centres unmarked) [Example 391, 1-(2,4-difluoro-phenyl)-5-[4-(5-methanesulfonyl-pyridin-2-yl)-phenyl]-3-[di-(trifluoromethyl)-hydroxy-methyl]-4,5-dihydro-1H-pyrazole]	26	173
CS(=O)(=O)c1ccc(-c2ccc(C3CC(C(O)(C(F)(F)F)C(F)(F)F)=NN3c3ccc(F)cc3F)cc2)cc1C(F)(F)F (centres unmarked) [Example 392, 1-(2,4-difluoro-phenyl)-5-(4′-methanesulfonyl-3′-trifluoromethyl-biphenyl-4-yl)-3-[di-(trifluoromethyl)-hydroxy-methyl]-4,5-dihydro-1H-pyrazole]	26	147
OC(C1=NN(c2ccc(F)cc2F)C(c2ccc(-c3c(F)cc(-n4cnnn4)cc3F)cc2)C1)(C(F)(F)F)C(F)(F)F (centres unmarked) [Example 393, 1-(2,4-difluoro-phenyl)-5-{[2′,6′-difluoro-4′-(tetrazol-1-yl)-biphenyl]-4-yl}-3-[di-(trifluoromethyl)-hydroxy-methyl]-4,5-dihydro-1H-pyrazole]	8	790
Cc1cc(-n2cnnn2)ncc1-c1ccc(C2CC(C(O)(C(F)(F)F)C(F)(F)F)=NN2c2ccc(F)cc2F)cc1 (centres unmarked) [Example 394, 1-(2,4-difluoro-phenyl)-5-{4-[4-methyl-6-(tetrazol-1-yl)-pyridin-3-yl]-phenyl}-3-[di-(trifluoromethyl)-hydroxy-methyl]-4,5-dihydro-1H-pyrazole]	50	83
CN(CCCS(=O)(=O)c1cccc(-c2ccc(C3CC(C(O)(C(F)(F)F)C(F)(F)F)=NN3c3ccc(F)cc3F)cc2)c1)C(=O)OC(C)(C)C (centres unmarked) [Example 395, 5-{3′-[3-(N-BOC-N-methyl-amino)-propane-1-sulfonyl]-biphenyl-4-yl}-1-(2,4-difluoro-phenyl)-3-(di-(trifluoromethyl)-hydroxy-methyl)-4,5-dihydro-1H-pyrazole]	83	0.4
CN(C)S(=O)(=O)c1ccc(-c2ccc(C3CC(C(O)(C(F)(F)F)C(F)(F)F)=NN3c3ccc(F)cc3F)cc2)cc1 (centres unmarked) [Example 396, 1-(2,4-difluoro-phenyl)-5-(4′-dimethylsulfamoyl-biphenyl-4-yl)-3-(di-(trifluoromethyl)-hydroxy-methyl)-4,5-dihydro-1H-pyrazole]	83	145
CC(C)(C)OC(=O)N1CC=C(c2ccc(C3CC(C(O)(C(F)(F)F)C(F)(F)F)=NN3c3ccc(F)cc3F)cc2)CC1 (centres unmarked) [Example 398, 1-(2,4-difluoro-phenyl)-5-[4-(1-BOC-1,2,3,6-tetrahydropyridin-4-yl)-phenyl]-3-[di-(trifluoromethyl)-hydroxy-methyl]-4,5-dihydro-1H-pyrazole]	12	1810
CS(=O)(=O)N1CC=C(c2ccc(C3CC(C(O)(C(F)(F)F)C(F)(F)F)=NN3c3ccc(F)cc3F)cc2)CC1 (centres unmarked) [Example 400, 1-(2,4-difluoro-phenyl)-5-[4-(1-methanesulfonyl-1,2,3,6-tetrahydropyridin-4-yl)-phenyl]-3-[di-(trifluoromethyl)-hydroxy-methyl]-4,5-dihydro-1H-pyrazole]	38	379
